Results: the NIST ThermoML archive (doi:10.1021/je401120a)

Assay: xn = mol fraction of the nth substance listed
Details: 101 kPa, Liquid; for electrical conductivity: Crison conductimeter (model GLP31); for speed of sound: Pulse-echo method; for mass density: Vibrating tube method

CCC[n+]1ccccc1.F[B-](F)(F)F [1-propylpyridinium tetrafluoroborate] + CO
Details	electrical conductivity [S/m]	mass density [kg/m3]	speed of sound [m/s]	viscosity [mPa·s]
293.15 K, x1 = 0.028	–	846.441	1164.9	–
293.15 K, x1 = 0.0313	2.58	–	–	–
293.15 K, x1 = 0.0365	2.84	–	–	–
293.15 K, x1 = 0.0422	3.07	–	–	–
293.15 K, x1 = 0.0505	–	–	–	1.267
293.15 K, x1 = 0.0577	–	893.625	1208.5	–
293.15 K, x1 = 0.0658	3.66	–	–	–
293.15 K, x1 = 0.0775	3.86	–	–	–
293.15 K, x1 = 0.0894	4.05	–	–	–
293.15 K, x1 = 0.0967	–	944.389	1257.2	–
293.15 K, x1 = 0.0993	–	–	–	2.52
293.15 K, x1 = 0.1294	4.37	–	–	–
293.15 K, x1 = 0.1409	4.4	–	–	–
293.15 K, x1 = 0.1459	–	995.788	1311.1	–
293.15 K, x1 = 0.1703	4.48	–	–	–
293.15 K, x1 = 0.191	–	–	–	5.73
293.15 K, x1 = 0.1952	–	1036.49	1362.9	–
293.15 K, x1 = 0.2002	4.41	–	–	–
293.15 K, x1 = 0.2456	4.22	–	–	–
293.15 K, x1 = 0.2819	3.93	–	–	–
293.15 K, x1 = 0.291	–	–	–	9.737
293.15 K, x1 = 0.3213	–	1110.62	1458	–
293.15 K, x1 = 0.3507	3.46	–	–	–
293.15 K, x1 = 0.3918	–	–	–	14.39
293.15 K, x1 = 0.3937	3.13	–	–	–
293.15 K, x1 = 0.4002	–	1143.05	1496.5	–
293.15 K, x1 = 0.4334	2.77	–	–	–
293.15 K, x1 = 0.464	2.55	–	–	–
293.15 K, x1 = 0.4929	–	–	–	20.26
293.15 K, x1 = 0.4965	–	1173.27	1541.5	–
293.15 K, x1 = 0.5398	1.98	–	–	–
293.15 K, x1 = 0.5988	–	1198.33	1575.7	–
293.15 K, x1 = 0.6117	–	–	–	29.28
293.15 K, x1 = 0.635	1.46	–	–	–
293.15 K, x1 = 0.6904	–	1216.19	1598.4	–
293.15 K, x1 = 0.7331	–	–	–	46.22
293.15 K, x1 = 0.7918	0.639	–	–	–
293.15 K, x1 = 0.7923	–	–	–	61.38
293.15 K, x1 = 0.8011	–	1233.62	1621.5	–
293.15 K, x1 = 0.8425	–	–	–	77.91
293.15 K, x1 = 0.8824	–	1244.23	1637.1	–
293.15 K, x1 = 0.894	0.422	–	–	–
293.15 K, x1 = 0.8956	–	–	–	99.92
293.15 K, x1 = 0.9384	0.355	–	–	–
293.15 K, x1 = 0.94	–	1250.69	1646.4	–
293.15 K, x1 = 0.9447	–	–	–	125.55
293.15 K, x1 = 1	0.302	1256.67	1653.9	160
303.15 K, x1 = 0.028	–	837.96	1134.5	–
303.15 K, x1 = 0.0313	2.99	–	–	–
303.15 K, x1 = 0.0365	3.28	–	–	–
303.15 K, x1 = 0.0422	3.59	–	–	–
303.15 K, x1 = 0.0505	–	–	–	0.9388
303.15 K, x1 = 0.0577	–	885.479	1179.8	–
303.15 K, x1 = 0.0658	4.29	–	–	–
303.15 K, x1 = 0.0775	4.56	–	–	–
303.15 K, x1 = 0.0894	4.84	–	–	–
303.15 K, x1 = 0.0967	–	936.347	1230.9	–
303.15 K, x1 = 0.0993	–	–	–	1.76
303.15 K, x1 = 0.1294	5.15	–	–	–
303.15 K, x1 = 0.1409	5.25	–	–	–
303.15 K, x1 = 0.1459	–	987.6	1286.2	–
303.15 K, x1 = 0.1703	5.38	–	–	–
303.15 K, x1 = 0.191	–	–	–	3.674
303.15 K, x1 = 0.1952	–	1028.35	1339.4	–
303.15 K, x1 = 0.2002	5.35	–	–	–
303.15 K, x1 = 0.2456	5.16	–	–	–
303.15 K, x1 = 0.2819	4.8	–	–	–
303.15 K, x1 = 0.291	–	–	–	6.277
303.15 K, x1 = 0.3213	–	1102.55	1433.2	–
303.15 K, x1 = 0.3507	4.31	–	–	–
303.15 K, x1 = 0.3918	–	–	–	8.954
303.15 K, x1 = 0.3937	3.94	–	–	–
303.15 K, x1 = 0.4002	–	1135.04	1477.2	–
303.15 K, x1 = 0.4334	3.52	–	–	–
303.15 K, x1 = 0.464	3.16	–	–	–
303.15 K, x1 = 0.4929	–	–	–	12.66
303.15 K, x1 = 0.4965	–	1165.53	1516.7	–
303.15 K, x1 = 0.5398	2.59	–	–	–
303.15 K, x1 = 0.5988	–	1190.7	1550.9	–
303.15 K, x1 = 0.6117	–	–	–	18.63
303.15 K, x1 = 0.635	2.01	–	–	–
303.15 K, x1 = 0.6904	–	1208.71	1574	–
303.15 K, x1 = 0.7331	–	–	–	29.44
303.15 K, x1 = 0.7918	1.04	–	–	–
303.15 K, x1 = 0.7923	–	–	–	38
303.15 K, x1 = 0.8011	–	1226.21	1597.3	–
303.15 K, x1 = 0.8425	–	–	–	47.82
303.15 K, x1 = 0.8824	–	1236.99	1612.7	–
303.15 K, x1 = 0.894	0.702	–	–	–
303.15 K, x1 = 0.8956	–	–	–	59.95
303.15 K, x1 = 0.9384	0.625	–	–	–
303.15 K, x1 = 0.94	–	1243.5	1622.4	–
303.15 K, x1 = 0.9447	–	–	–	73.49
303.15 K, x1 = 1	0.516	1249.54	1629.8	90.75
